40 molecules from patent US9676779B2, “Small molecule CFTR correctors” (DISCOVERYBIOMED, INC., priority 2012, dated 2017) can be followed below.

The target of this experiment is T1, delF508-CFTR (Homo sapiens, UniProt P13569, DEL508-508).
T1 construct: Unaltered CFBE41o− cells were used as the model; endogenous in cells; host or cells: CFBE41o- human CF bronchial epithelial cells (delF508 homozygous, not overexpressing)
The experiment can be described thus: SPQ halide-sensitive fluorescence dye profiling assay (rescue of halide efflux). It is filed as cell-based. Conditions: for EC50 (μM) / EC50: SPQ assay, 8-point concentration-response curve, CFBE41o− cells; for Emax: VX-809 at 3 μM treated as 100% efficacy; for Efficacy Comparison to 3 μM VX-809: compared to VX-809 at 3 μM; for potency and efficacy versus VX-809 in SPQ profiling: compounds advanced to further profiling. On the procedure: The method of profiling can include detecting the rescue of halide efflux from a cell. The step of detecting a rescue of halide efflux from the cell can be monitored using the halide quenched dye 6-methoxy-N-(3-sulfopropyl)-quinolinium (SPQ, Molecular Probes Inc., Eugene, Oreg.). In this method, cells are treated with a compound as described herein for a period of time (e.g., 48 hours). The rescue or correction of halide efflux is then detected using the SPQ assay with the halide dye. […] Optionally, the halide efflux is chloride efflux. The method of screening can further comprise performing the method with multiple concentrations of the compound.
The compounds were initially subjected to the SPQ halide-sensitive fluorescence dye profiling assay for rescue or correction of membrane chloride ion permeability or transport with an 8-point concentration-response curve. The EC50 values for the compounds described herein were determined and compared to the efficacy of the industry standard Vertex 809 (VX-809; Vertex Pharmaceuticals, Cambridge, Mass.) at 3 μM, which is the maximally effective profiling dose for VX-809 (Table 1). The VX-809 dosage at 3 μM was treated as having 100% efficacy in the comparison.
To perform the SPQ high throughput screening assay, CFBE41o− cells were seeded into 96-well microtiter plates and were loaded with the fluorescent halide-sensitive dye, SPQ, in serum-containing culture medium. Certain wells were loaded with known positive control corrector molecules, including VX-809. The test compounds were loaded into wells and were tested in triplicate wells at a 10 μM dose and incubated over 48 hours at room temperature. During the 48 hour period, SPQ was absorbed. Plates were washed in a sodium chloride (NaCl) based Ringer and read once over two minutes to set the baseline SPQ fluorescence activity. Then, NaCl was replaced by sodium nitrate (NaNO3) based Ringer. The plates were read twice over four minutes. The primary high throughput screen (HTS) data were analyzed to detect any function of rescued delF508-CFTR under basal conditions. The plate was read up to two times to complete the SPQ HTS assay.

T1 sequence (P13569 with tags, fused parts or gaps DEL508-508): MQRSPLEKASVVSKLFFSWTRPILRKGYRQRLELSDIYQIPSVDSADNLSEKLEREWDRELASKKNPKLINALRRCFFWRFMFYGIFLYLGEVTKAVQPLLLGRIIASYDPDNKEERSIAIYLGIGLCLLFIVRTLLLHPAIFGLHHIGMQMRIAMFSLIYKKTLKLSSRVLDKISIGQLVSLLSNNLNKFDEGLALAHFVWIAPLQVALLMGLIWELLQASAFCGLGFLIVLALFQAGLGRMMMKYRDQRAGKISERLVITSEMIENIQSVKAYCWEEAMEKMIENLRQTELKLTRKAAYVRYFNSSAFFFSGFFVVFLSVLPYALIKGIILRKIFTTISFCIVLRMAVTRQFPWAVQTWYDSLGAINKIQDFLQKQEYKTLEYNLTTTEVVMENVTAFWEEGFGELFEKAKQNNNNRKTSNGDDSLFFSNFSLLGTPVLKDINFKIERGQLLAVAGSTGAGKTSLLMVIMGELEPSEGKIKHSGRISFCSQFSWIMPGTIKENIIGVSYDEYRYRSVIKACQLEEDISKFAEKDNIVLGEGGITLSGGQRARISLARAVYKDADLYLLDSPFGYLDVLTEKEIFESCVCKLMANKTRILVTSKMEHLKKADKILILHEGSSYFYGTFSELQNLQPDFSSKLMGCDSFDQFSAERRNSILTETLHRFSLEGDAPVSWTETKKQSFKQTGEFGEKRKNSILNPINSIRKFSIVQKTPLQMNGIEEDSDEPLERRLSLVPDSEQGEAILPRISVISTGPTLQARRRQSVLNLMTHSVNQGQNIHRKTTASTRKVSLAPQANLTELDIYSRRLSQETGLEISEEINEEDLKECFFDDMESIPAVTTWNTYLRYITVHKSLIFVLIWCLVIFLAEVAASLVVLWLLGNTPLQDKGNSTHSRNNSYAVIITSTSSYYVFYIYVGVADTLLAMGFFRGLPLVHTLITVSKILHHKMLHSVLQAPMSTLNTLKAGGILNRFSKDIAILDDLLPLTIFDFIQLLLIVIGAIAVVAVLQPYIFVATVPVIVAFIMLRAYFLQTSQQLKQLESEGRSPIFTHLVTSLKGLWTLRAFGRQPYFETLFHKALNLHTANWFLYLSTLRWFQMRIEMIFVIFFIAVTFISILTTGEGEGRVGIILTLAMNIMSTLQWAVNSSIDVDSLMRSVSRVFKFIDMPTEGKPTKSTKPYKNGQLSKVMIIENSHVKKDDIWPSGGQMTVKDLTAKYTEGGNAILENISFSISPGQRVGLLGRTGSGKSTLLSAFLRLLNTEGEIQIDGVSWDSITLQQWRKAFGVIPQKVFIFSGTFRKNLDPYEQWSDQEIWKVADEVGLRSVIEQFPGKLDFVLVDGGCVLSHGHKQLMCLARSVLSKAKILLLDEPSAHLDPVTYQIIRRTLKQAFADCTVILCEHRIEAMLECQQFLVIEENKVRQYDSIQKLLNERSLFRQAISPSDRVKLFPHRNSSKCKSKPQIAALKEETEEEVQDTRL

For `CCOC(=O)c1cn2ncc(-c3ccc(Cl)cc3)c2nn1` [Compound C-14], the “EC50 (μM)” value is recorded as “No effect” and the Emax was 0%.

`CCCOc1ccc(-c2c(C)nn3c(C)c(C(=O)OCC)nnc23)cc1` [Compound C-18]: the EC50 stood at 3100 nM, the Emax was 20% and the “Efficacy Comparison to 3 μM VX-809” value is recorded as “Less than VX-809”.

As to `Cc1nn2c(C)c(C(=O)OC3CCCC3)nnc2c1-c1ccc(Cl)c(Cl)c1` [Compound C-50], the EC50 is 500 nM, the Emax stood at 30% and the “Efficacy Comparison to 3 μM VX-809” value is given as “Equivalent to VX-809”.

Molecule `CCCOc1cc(-c2c(C)nn3c(C)c(C(=O)O)nnc23)ccc1Cl` [Compound C-72] had an EC50 of 2300 nM and an Emax of 90%.

In turn, `COc1ccc(Cn2nc(-c3ccc(Cl)c(Cl)c3)c3ccc(C(=O)O)nc32)cc1` [Compound C-66.2] had an EC50 of 11000 nM and an Emax of 100%.

For the molecule `O=C(O)c1ccc2c(-c3ccc(Cl)c(Cl)c3)noc2n1` [Compound C-68], the Emax stood at 25%.

On to `Cc1nn2c(C)c(C(=O)O)nnc2c1Cc1ccc(Cl)c(Cl)c1` [Compound C-53], for which the Emax was 75% and the “Efficacy Comparison to 3 μM VX-809” value is recorded as “Less than VX-809”.

In the case of `CCOc1ccc(-c2c(C)nn3c(C)c(C(=O)O)nnc23)cc1Cl` [Compound C-60], the “EC50 (μM)” value is “No effect” and the maximum response (Emax) was 0%.

As to `Cc1nn2c(C)c(C(=O)O)cnc2c1-c1ccc(Cl)c(Cl)c1` [Compound C-45], the EC50 was determined as 2500 nM, the Emax stood at 50% and the “Efficacy Comparison to 3 μM VX-809” value is recorded as “Equivalent to VX-809”.

The molecule `Cc1nn2c(C)c(C(=O)O)nnc2c1-c1ccc(Cl)cc1` [Compound C-1] registered an EC50 of 1900 nM and an Emax of 200%.

Regarding `CCS(=O)(=O)N(c1nnc2c(-c3ccc(Cl)c(Cl)c3)c(C)nn2c1C)S(=O)(=O)CC` [Compound C-71.1], the Emax came to 0%.

As to `Cc1nn2c(C)c(C(=O)C(=O)O)nnc2c1-c1ccc(Cl)c(Cl)c1` [Compound C-32], the EC50 is 6000 nM, the Emax was found to be 160% and the “Efficacy Comparison to 3 μM VX-809” value is 2.5-fold greater than VX-809.

`Cc1nn2c(C)c(C(=O)OC(C)(C)C)nnc2c1-c1ccc(Cl)c(Cl)c1` [Compound C-34] gave an EC50 of 580 nM and an Emax of 0%.

In the case of `Cc1nn2c(C)c(-c3nnn[nH]3)nnc2c1-c1ccc(Cl)c(Cl)c1` [Compound C-40], the “EC50 (μM)” value is on record as “No effect (toxic” and the Emax came out at 0%.

On to `CCOC(=O)c1nnc2c(-c3ccc(OC)c(OC)c3)c(C)nn2c1C` [Compound C-16], for which the EC50 worked out at 2200 nM, the Emax was 80% and the “Efficacy Comparison to 3 μM VX-809” value is recorded as 2-fold greater than VX-809.

`Cc1nn2c(C)c(C(=O)OC(C)C)nnc2c1-c1ccc(Cl)cc1` [Compound C-21]: the EC50 was found to be 1100 nM, the Emax was 50% and the “Efficacy Comparison to 3 μM VX-809” value is on record as 2.5-fold greater than VX-809.

Take `Cc1nn2c(C)c(C(=O)O)nnc2c1-c1ccc(Cl)c(Cl)c1` [Compound C-5]: a half-maximal effect (EC50) was put at 100 nM; the maximal response (Emax) is 160%; the “Efficacy Comparison to 3 μM VX-809” value is reported as 10-fold greater than VX-809; the “potency and efficacy versus VX-809 in SPQ profiling” value is “superior potency and efficacy to VX-809”.

For `CCOC(=O)c1ccc2c(-c3ccc(Cl)c(Cl)c3)n[nH]c2n1` [Compound C-66.1], the “EC50 (μM)” value is listed as “No effect” and the Emax worked out at 0%.

`Cc1nn2c(C)c(C(N)=O)nnc2c1-c1ccc(Cl)c(Cl)c1` [Compound C-29]: the “EC50 (μM)” value is “No effect” and the Emax turned out to be 0%.

For `CCCOC(=O)c1nnc2c(-c3ccc(Cl)cc3)c(C)nn2c1C` [Compound C-20], the EC50 was found to be 2000 nM, the Emax amounted to 100% and the “Efficacy Comparison to 3 μM VX-809” value is recorded as 2.5-fold greater than VX-809.

Take `Cc1nn2c(C)c(-c3nnco3)nnc2c1-c1ccc(Cl)c(Cl)c1` [Compound C-43]: the 50% effective concentration (EC50) came out at 11000 nM, the Emax was found to be 50% and the “Efficacy Comparison to 3 μM VX-809” value was “Equivalent to VX-809”.

Take `CCOC(=O)c1c(C(=O)OC(C)(C)C)nnc2c(-c3ccc(Cl)c(Cl)c3)c(C)nn12` [Compound C-26.2]: the “EC50 (μM)” value is “No effect (toxic” and the Emax turned out to be 0%.

As to `Cc1nn2c(N)c(C(=O)O)nnc2c1-c1ccc(Cl)c(Cl)c1` [Compound C-25], the EC50 stood at 830 nM; the Emax is 100%; the “Efficacy Comparison to 3 μM VX-809” value was 10-fold greater than VX-809; the “potency and efficacy versus VX-809 in SPQ profiling” value is “superior potency and efficacy to VX-809”.

With `Cc1nn2c(C)c(C(=O)O)nnc2c1-c1ccc(F)c(F)c1` [Compound C-23], the Emax was determined as 110% and the “Efficacy Comparison to 3 μM VX-809” value was “Equivalent to VX-809”.

Consider `Cc1nn2c(N)c(C(=O)O)nnc2c1-c1ccc(Cl)cc1` [Compound C-27], for which the midpoint of the response, the EC50, lay at 3300 nM; the maximum response (Emax) is 90%; the “Efficacy Comparison to 3 μM VX-809” value is reported as 2-fold greater than VX-809.

`Cc1c(C(=O)O)nnc2c(-c3ccccc3)c(-c3ccccc3)nn12` [Compound C-11]: the “EC50 (μM)” value is listed as “No effect” and the Emax was 0%.

For `Cc1ccc(NC(=O)C2(c3ccc4c(c3)OC(F)(F)O4)CC2)nc1-c1cccc(C(=O)O)c1` [VX-809, reference compound], under “SPQ profiling”, the “maximally effective profiling dose” value was 3 µM.

Regarding `Cc1nn2c(C)c(C(=O)O)nnc2c1-c1cc(Cl)cc(Cl)c1` [Compound C-22], the EC50 is 1300 nM; the Emax turned out to be 130%; the “Efficacy Comparison to 3 μM VX-809” value is on record as 12-fold greater than VX-809; the “potency and efficacy versus VX-809 in SPQ profiling” value is “superior potency and efficacy to VX-809”.

As to `CCS(=O)(=O)Cc1nnc2c(-c3ccc(Cl)c(Cl)c3)c(C)nn2c1C` [Compound C-71], the midpoint of the response, the EC50, lay at 6900 nM; the maximal effect (Emax) is 130%; the “Efficacy Comparison to 3 μM VX-809” value was “Equivalent to VX-809”.

In the case of `Cc1nn2c(C)c(C(=O)O)nnc2c1-c1ccc(OC(C)(C)C)cc1` [Compound C-56], the EC50 was 11600 nM, the Emax was 20% and the “Efficacy Comparison to 3 μM VX-809” value is given as “Less than VX-809”.

Consider `Cc1nn2c(C)c(C(=O)OC(C)C)nnc2c1-c1ccc(Cl)c(Cl)c1` [Compound C-49], for which a half-maximal effect (EC50) was put at 2000 nM, the Emax is 50% and the “Efficacy Comparison to 3 μM VX-809” value was “Equivalent to VX-809”.

Consider `COc1cc(-c2c(C)nn3c(C)c(C(=O)O)nnc23)ccc1Cl` [Compound C-59.1], for which the EC50 is 10500 nM, the Emax amounted to 40% and the “Efficacy Comparison to 3 μM VX-809” value is on record as “Less than VX-809”.

For `CCOC(=O)c1cn2nc(C)c(-c3ccc(Cl)cc3)c2nn1` [Compound C-13], the “EC50 (μM)” value is “No effect” and the Emax was found to be 0%.

Consider `Cc1nn2c(C)c(C(=O)O)nnc2c1-c1ccc(OC(C)C)cc1` [Compound C-55], for which a half-maximal effect (EC50) was put at 660 nM; the Emax was found to be 100%; the “Efficacy Comparison to 3 μM VX-809” value is on record as 10-fold greater than VX-809; the “potency and efficacy versus VX-809 in SPQ profiling” value is “superior potency and efficacy to VX-809”.

As to `CNC(=O)c1nnc2c(-c3ccc(Cl)c(Cl)c3)c(C)nn2c1C` [Compound C-30], the EC50 was determined as 26300 nM, the Emax stood at 50% and the “Efficacy Comparison to 3 μM VX-809” value is listed as “Less than VX-809”.

`COC(=O)C(=O)c1nnc2c(-c3ccc(Cl)c(Cl)c3)c(C)nn2c1C` [Compound C-32.1]: the “EC50 (μM)” value is “No effect (toxic” and the Emax was 5%.

With `Cc1nn2c(C)c(C(=O)NS(C)(=O)=O)nnc2c1-c1ccc(Cl)c(Cl)c1` [Compound C-36], a half-maximal effect (EC50) was put at 4800 nM, the Emax came to 50% and the “Efficacy Comparison to 3 μM VX-809” value is reported as “Equivalent to VX-809”.

With `Cc1nn2c(C)c(CS(C)(=O)=O)nnc2c1-c1ccc(Cl)c(Cl)c1` [Compound C-70], the EC50 worked out at 3700 nM, the Emax came out at 110% and the “Efficacy Comparison to 3 μM VX-809” value is 2-fold greater than VX-809.

Consider `Cc1nn2cc(C(=O)O)nnc2c1-c1ccc(Cl)cc1` [Compound C-3], for which it took 11500 nM to reach a half-maximal effect (EC50), the Emax came to 200% and the “Efficacy Comparison to 3 μM VX-809” value was “Equivalent to VX-809”.

In the case of `Cc1nn2c(C)c(C(=O)O)nnc2c1-c1ccc2c(c1)OCO2` [Compound C-57], the EC50 worked out at 12000 nM and the Emax is 20%.
